# Target: Epidermal growth factor receptor (Homo sapiens, UniProt P00533)
# Test: Tested for inhibition of Epidermal growth factor receptor from A431 vulval squamous carcinoma cells
# Sequence of Epidermal growth factor receptor (P00533 whole entry): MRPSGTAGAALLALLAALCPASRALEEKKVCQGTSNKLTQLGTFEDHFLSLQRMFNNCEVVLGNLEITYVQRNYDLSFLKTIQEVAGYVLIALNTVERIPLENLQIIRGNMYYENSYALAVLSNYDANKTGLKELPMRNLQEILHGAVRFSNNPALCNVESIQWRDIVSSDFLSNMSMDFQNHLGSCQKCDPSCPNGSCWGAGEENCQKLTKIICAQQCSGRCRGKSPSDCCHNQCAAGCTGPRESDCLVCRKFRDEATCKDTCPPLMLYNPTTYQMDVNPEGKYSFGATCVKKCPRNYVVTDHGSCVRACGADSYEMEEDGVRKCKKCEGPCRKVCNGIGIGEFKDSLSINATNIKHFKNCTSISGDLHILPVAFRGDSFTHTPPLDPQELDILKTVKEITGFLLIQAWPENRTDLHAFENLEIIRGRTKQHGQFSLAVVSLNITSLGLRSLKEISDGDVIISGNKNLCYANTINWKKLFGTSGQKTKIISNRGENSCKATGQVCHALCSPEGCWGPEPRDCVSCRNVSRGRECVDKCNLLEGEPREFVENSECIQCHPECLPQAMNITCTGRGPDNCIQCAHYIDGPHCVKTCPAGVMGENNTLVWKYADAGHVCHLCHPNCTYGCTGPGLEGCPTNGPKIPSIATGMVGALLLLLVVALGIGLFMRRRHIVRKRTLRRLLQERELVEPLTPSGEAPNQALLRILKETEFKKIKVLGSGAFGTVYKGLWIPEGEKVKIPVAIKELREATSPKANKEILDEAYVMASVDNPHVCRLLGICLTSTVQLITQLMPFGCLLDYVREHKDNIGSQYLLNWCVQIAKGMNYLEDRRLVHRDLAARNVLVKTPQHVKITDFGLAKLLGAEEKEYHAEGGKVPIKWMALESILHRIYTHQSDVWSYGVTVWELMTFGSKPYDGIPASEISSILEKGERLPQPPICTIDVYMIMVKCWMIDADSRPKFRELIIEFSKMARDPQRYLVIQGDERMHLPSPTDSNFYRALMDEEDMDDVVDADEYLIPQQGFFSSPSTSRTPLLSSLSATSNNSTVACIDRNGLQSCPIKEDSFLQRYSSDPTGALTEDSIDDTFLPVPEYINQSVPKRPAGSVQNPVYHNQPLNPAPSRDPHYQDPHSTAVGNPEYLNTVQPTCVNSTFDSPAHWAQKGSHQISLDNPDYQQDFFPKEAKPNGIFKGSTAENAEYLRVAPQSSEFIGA
row,IC50 [nM],SMILES
1,820,COc1cc2ncnc(N3CCc4ccccc43)c2cc1OC
2,6.4,COc1cc2ncnc(Nc3cncc4ccccc34)c2cc1OC
3,200,COc1cc2ncnc(Nc3nccc4ccccc34)c2cc1OC
4,780,COc1cc2ncnc(Nc3cnc4ccccc4n3)c2cc1OC
5,10,COc1cc2ncnc(NC3CC3c3ccccc3)c2cc1OC (centres undefined)
6,300,COc1cc2ncnc(NC3CC3c3ccccc3)c2cc1OCCN1CCOCC1 (centres undefined)
7,430,COc1cc2ncnc(NNc3ccc(F)c(Cl)c3)c2cc1OC
8,84,COc1cc2ncnc(NC3CC3c3ccccc3)c2cc1OC(C)=O (centres undefined)
9,820,COc1cc2ncnc(Nc3nnc4ccccc4n3)c2cc1OC
10,27,COc1cc2ncnc(NC3CC3c3ccccc3)c2cc1OCCCN(C)C (centres undefined)
11,730,COc1cc2ncnc(/N=N/c3ccc(F)c(Cl)c3)c2cc1OC
12,170,COc1cc2ncnc(NCc3cccc(C)c3)c2cc1OC
13,390,COc1cc2ncnc(NC3CC3c3ccccc3)c2cc1O (centres undefined)
14,910,COc1cc2ncnc(NC3CCc4ccccc43)c2cc1OC (centres undefined)

# — ChEMBL document CHEMBL1129210, “Epidermal growth factor receptor tyrosine kinase: Structure-activity relationships and antitumour activity of novel quinazolines” (Bioorg Med Chem Lett, 1997)
